Laboratory results reported in ChEMBL document CHEMBL4270534, “Novel carbazole-triazole conjugates as DNA-targeting membrane active potentiators against clinical isolated fungi” (Eur J Med Chem, 2018).
≈ marks a conversion by molar mass, not a printed value. Calls of active or inactive are those of the source. No cut-off for these calls is given here.

Key:
Escherichia coli [1] = test: Antibacterial activity against Escherichia coli after 24 hrs by micro broth dilution method; type: functional
Staphylococcus aureus [2] = test: Antibacterial activity against Staphylococcus aureus ATCC 29213 after 24 hrs by micro broth dilution method; type: functional; details: ATCC 29213, 24 h
Candida albicans [3] = test: Ratio of MFC to MIC for Candida albicans; type: functional
Staphylococcus aureus [4] = test: Antibacterial activity against methicillin-resistant Staphylococcus aureus after 24 hrs by micro broth dilution method; type: functional
Calf thymus DNA [5] = test: Binding affinity to calf thymus DNA by UV absorption spectral analysis; type: nucleic-acid assay; details: Bos taurus
Candida albicans [6] = test: Synergistic antifungal activity against Candida albicans assessed as FIC index after 18 hrs in presence of fluconazole by checkerboard assay; type: functional
Candida albicans [7] = test: Fungicidal activity against Candida albicans incubated for 24 hrs followed by plating onto tryptic soy agar medium and measured after 24 hrs by broth microdilution method; type: functional
Candida parapsilosis [8] = test: Potency index, ratio of fluconazole MIC to test compound MIC for Candida parapsilosis ATCC 22019; type: functional
Pseudomonas aeruginosa [9] = test: Antibacterial activity against Pseudomonas aeruginosa after 24 hrs by micro broth dilution method; type: functional
Candida albicans [10] = test: Antifungal activity against Candida albicans after 24 hrs by two-fold broth microdilution assay; type: functional
Candida tropicalis [11] = test: Antifungal activity against Candida tropicalis after 24 hrs by two-fold broth microdilution assay; type: functional
Candida tropicalis [12] = test: Potency index, ratio of fluconazole MIC to test compound MIC for Candida tropicalis; type: functional
Enterococcus faecalis = test: Antibacterial activity against Enterococcus faecalis after 24 hrs by micro broth dilution method; type: functional
Candida parapsilosis [13] = test: Ratio of MFC to MIC for Candida parapsilosis ATCC 22019; type: functional
Staphylococcus aureus [14] = test: Antibacterial activity against Staphylococcus aureus ATCC 25923 after 24 hrs by micro broth dilution method; type: functional; details: ATCC 25923, 24 h
Candida tropicalis [15] = test: Ratio of MFC to MIC for Candida tropicalis; type: functional
Candida albicans [16] = test: Antifungal activity against Candida albicans at MIC after 10 serial passages; type: functional, organism-based
Candida albicans [17] = test: Antifungal activity against Candida albicans ATCC 90023 after 24 hrs by two-fold broth microdilution assay; type: functional; details: ATCC 90023, 24 h
Candida parapsilosis [18] = test: Antifungal activity against Candida parapsilosis ATCC 22019 after 24 hrs by two-fold broth microdilution assay; type: functional; details: Lodderomyces parapsilosis, ATCC 22019, 24 h
Candida tropicalis [19] = test: Synergistic antifungal activity against Candida tropicalis assessed as FIC index after 18 hrs in presence of fluconazole by checkerboard assay; type: functional
Klebsiella pneumoniae = test: Antibacterial activity against Klebsiella pneumoniae after 24 hrs by micro broth dilution method; type: functional
Pseudomonas aeruginosa [20] = test: Antibacterial activity against Pseudomonas aeruginosa ATCC 27853 after 24 hrs by micro broth dilution method; type: functional; details: ATCC 27853, 24 h
Candida tropicalis [21] = test: Fungicidal activity against Candida tropicalis incubated for 24 hrs followed by plating onto tryptic soy agar medium and measured after 24 hrs by broth microdilution method; type: functional
Albumin = Albumin (Homo sapiens, UniProt P02768); test: Binding affinity to human serum albumin assessed as increase in peak intensity at tryptophan/tyrosine/phenylalanine residue up to 2 x 10^-5mol/L by UV-vis absorption spectra analysis; type: ADME; details: isolated protein
Candida parapsilosis [22] = test: Fungicidal activity against Candida parapsilosis ATCC 22019 incubated for 24 hrs followed by plating onto tryptic soy agar medium and measured after 24 hrs by broth microdilution method; type: functional; details: Lodderomyces parapsilosis, ATCC 22019, 24 h
Acinetobacter baumannii = test: Antibacterial activity against Acinetobacter baumannii after 24 hrs by micro broth dilution method; type: functional
Calf thymus DNA [23] = test: Binding affinity to calf thymus DNA assessed as hypochromic shift up to 2 x 10^-5mol/L by UV absorption spectral analysis; type: nucleic-acid assay; details: Bos taurus
Candida albicans [24] = test: Potentiation of fluconazole-induced antifungal activity against Candida albicans at MIC after 16 serial passages; type: functional, organism-based
Calf thymus DNA [25] = test: Displacement of neutral dye from calf thymus DNA up to 2 x 10^-5mol/L by UV absorption spectra analysis; type: nucleic-acid assay; details: Bos taurus
Escherichia coli [26] = test: Antibacterial activity against Escherichia coli ATCC 25922 after 24 hrs by micro broth dilution method; type: functional; details: ATCC 25922, 24 h
Candida albicans [27] = test: Synergistic antifungal activity against Candida albicans after 18 hrs in presence of fluconazole by checkerboard assay; type: functional
Candida albicans [28] = test: Induction of cytoplasmic membrane depolarization in Candida albicans measured for 300 secs by DiSC3-5 dye based fluorescence spectral analysis; type: functional, organism-based
Aspergillus fumigatus [29] = test: Synergistic antifungal activity against Aspergillus fumigatus after 18 hrs in presence of fluconazole by checkerboard assay; type: functional
Aspergillus fumigatus [30] = test: Synergistic antifungal activity against Aspergillus fumigatus assessed as FIC index after 18 hrs in presence of fluconazole by checkerboard assay; type: functional
Aspergillus fumigatus [31] = test: Antifungal activity against Aspergillus fumigatus after 24 hrs by two-fold broth microdilution assay; type: functional
Calf thymus DNA [32] = test: Binding affinity to calf thymus DNA assessed as Stern-Volmer quenching constant at 1 x 10^-5 mol/L in presence of potassium iodide by fluorescence assay (reference value: 12.9 L/mol); type: nucleic-acid assay; details: Bos taurus
Staphylococcus aureus [33] = test: Antibacterial activity against Staphylococcus aureus after 24 hrs by micro broth dilution method; type: functional
Candida tropicalis [34] = test: Synergistic antifungal activity against Candida tropicalis after 18 hrs in presence of fluconazole by checkerboard assay; type: functional

Sequence of Albumin (P02768 whole entry): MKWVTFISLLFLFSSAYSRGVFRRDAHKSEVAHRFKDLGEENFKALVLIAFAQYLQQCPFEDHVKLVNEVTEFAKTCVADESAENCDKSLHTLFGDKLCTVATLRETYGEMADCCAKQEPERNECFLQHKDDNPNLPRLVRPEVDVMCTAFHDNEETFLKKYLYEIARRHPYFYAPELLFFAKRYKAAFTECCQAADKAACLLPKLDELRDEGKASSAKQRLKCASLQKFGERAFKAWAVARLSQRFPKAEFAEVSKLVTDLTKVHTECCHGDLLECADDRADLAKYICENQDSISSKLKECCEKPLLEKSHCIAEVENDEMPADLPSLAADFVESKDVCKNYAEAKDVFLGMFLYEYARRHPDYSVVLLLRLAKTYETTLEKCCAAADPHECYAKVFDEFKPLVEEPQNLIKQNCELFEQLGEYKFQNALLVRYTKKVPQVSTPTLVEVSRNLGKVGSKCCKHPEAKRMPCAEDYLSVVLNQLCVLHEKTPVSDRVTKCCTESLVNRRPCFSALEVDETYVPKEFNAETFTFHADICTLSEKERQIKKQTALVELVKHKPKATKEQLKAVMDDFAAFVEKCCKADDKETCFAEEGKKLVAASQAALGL

Structure (SMILES): OC(Cn1cncn1)(Cn1c2ccc(Br)cc2c2cc(Br)ccc21)c1ccc(F)cc1F (stereo not drawn)
- MIC (Escherichia coli [1]): 16 µg/mL (≈ 28.5 µM)
- MIC (Staphylococcus aureus [2]): 16 µg/mL (≈ 28.5 µM)
- Ratio (Candida albicans [3]): 2
- MIC (Staphylococcus aureus [4]): 4 µg/mL (≈ 7.11 µM)
- K (Calf thymus DNA [5]): 7.8 ×10³ L/mol
- fractional inhibitory concentration index (FICI) (Candida albicans [6]): 0.25
- MFC (Candida albicans [7]): 8 µg/mL (≈ 14.2 µM)
- Ratio (Candida parapsilosis [8]): 2
- MIC (Pseudomonas aeruginosa [9]): 64 µg/mL (≈ 114 µM)
- MIC (Candida albicans [10]): 4 µg/mL (≈ 7.11 µM)
- MIC (Candida tropicalis [11]): 4 µg/mL (≈ 7.11 µM)
- Ratio (Candida tropicalis [12]): 2
- MIC (Enterococcus faecalis): 32 µg/mL (≈ 56.9 µM)
- Ratio (Candida parapsilosis [13]): 2
- MIC (Staphylococcus aureus [14]): 32 µg/mL (≈ 56.9 µM)
- Ratio (Candida tropicalis [15]): 2
- Activity (Candida albicans [16]): Active
- MIC (Candida albicans [17]): 8 µg/mL (≈ 14.2 µM)
- MIC (Candida parapsilosis [18]): 2 µg/mL (≈ 3.56 µM)
- fractional inhibitory concentration index (FICI) (Candida tropicalis [19]): 0.75
- MIC (Klebsiella pneumoniae): 128 µg/mL (≈ 228 µM)
- MIC (Pseudomonas aeruginosa [20]): 16 µg/mL (≈ 28.5 µM)
- MFC (Candida tropicalis [21]): 8 µg/mL (≈ 14.2 µM)
- Activity (Albumin): Active
- MFC (Candida parapsilosis [22]): 4 µg/mL (≈ 7.11 µM)
- MIC (Acinetobacter baumannii): 128 µg/mL (≈ 228 µM)
- Activity (Calf thymus DNA [23]): Active
- Activity (Candida albicans [24]): Active
- Activity (Calf thymus DNA [25]): Active
- MIC (Escherichia coli [26]): 32 µg/mL (≈ 56.9 µM)
- MIC (Candida albicans [27]): 0.5 µg/mL
- Activity (Candida albicans [28]): Dose-dependent effect
- MIC (Aspergillus fumigatus [29]): 16 µg/mL
- fractional inhibitory concentration index (FICI) (Aspergillus fumigatus [30]): 0.56
- MIC (Aspergillus fumigatus [31]): 32 µg/mL (≈ 56.9 µM)
- KSV (Calf thymus DNA [32]): 10 L/mol
- MIC (Staphylococcus aureus [33]): 64 µg/mL (≈ 114 µM)
- MIC (Candida tropicalis [34]): 2 µg/mL
